How the values were obtained:
Experiment in all cases: Test C postemergence
[1] = tested on: chickweed; format: in vivo, Stellaria media
Text: (§1) Seeds of plant species selected from blackgrass (Alopecurus myosuroides), ryegrass, Italian (Italian ryegrass, Lolium multiflorum), wheat (winter wheat, Triticum aestivum), galium (catchweed bedstraw, Galium aparine), corn (Zea mays), crabgrass, large (large crabgrass, Digitaria sanguinalis), foxtail, giant (giant foxtail, Setaria faberii), johnsongrass (Sorghum halepense), lambsquarters (Chenopodium album), morningglory (Ipomoea coccinea), nutsedge, yellow (yellow nutsedge, Cyperus esculentus), pigweed (redroot pigweed, Amaranthus retroflexus), ragweed (common ragweed, Ambrosia elation), soybean (Glycine max), barnyardgrass (Echinochloa crus-galli), oilseed rape (Brassica napus), waterhemp (common waterhemp, Amaranthus rudis), oat, wild (wild oat, Avena fatua), kochia (Kochia scoparia), Surinam grass (Brachiaria decumbens), foxtail, green (green foxtail, Setaria viridis), goosegrass (Eleusine indica), bromegrass, downy (downy bromegrass, Bromus tectorum), nightshade (eastern black nightshade, Solanum ptycanthum), cocklebur (common cocklebur, Xanthium strumarium), cupgrass, woolly (woolly cupgrass, Eriochloa villosa), bermudagrass (Cynodon dactylon), sunflower, (common oilseed sunflower, Helianthus annuus), Russian thistle (Salsola kali), and velvetleaf (Abutilon theophrasti) were planted into a blend of loam soil and sand and treated preemergence with test chemicals formulated in a non-phytotoxic solvent mixture which included a surfactant.
(§2) At the same time, plants selected from these crop and weed species and also chickweed (common chickweed, Stellaria media), canarygrass (littleseed canarygrass, Phalaris minor), and deadnettle (henbit deadnettle, Lamium amplexicaule), were planted in pots containing Redi-Earth® planting medium (Scotts Company, 14111 Scottslawn Road, Marysville, Ohio 43041) comprising spaghnum peat moss, vermiculite, wetting agent and starter nutrients and treated with postemergence applications of test chemicals formulated in the same manner. Plants ranged in height from 2 to 18 cm (1- to 4-leaf stage) for postemergence treatments. Treated plants and controls were maintained in a greenhouse for 13 to 15 days, after which time all species were compared to controls and visually evaluated. Plant response ratings, summarized in Table C, are based on a scale of 0 to 100 where 0 is no effect and 100 is complete control. A dash (-) response means no test result.

[2] = tested on: corn; format: in vivo, Zea mays
Text: as §1, §2

[3] = tested on: soybean; format: in vivo, Glycine max
Text: as §1, §2

[4] = tested on: oilseed rape; format: in vivo, Brassica napus
Text: as §1, §2

[5] = tested on: morningglory; format: in vivo, Ipomoea coccinea
Text: as §1, §2

[6] = tested on: blackgrass; format: in vivo, Alopecurus myosuroides
Text: as §1, §2

[7] = tested on: kochia; format: in vivo, Kochia scoparia
Text: as §1, §2

[8] = tested on: ragweed; format: in vivo, Ambrosia elation
Text: as §1, §2

[9] = tested on: crabgrass, large; format: in vivo, Digitaria sanguinalis
Text: as §1, §2

[10] = tested on: galium; format: in vivo, Galium aparine
Text: as §1, §2

[11] = tested on: johnsongrass; format: in vivo, Sorghum halepense
Text: as §1, §2

[12] = tested on: pigweed; format: in vivo, Amaranthus retroflexus
Text: as §1, §2

[13] = tested on: oat, wild; format: in vivo, Avena fatua
Text: as §1, §2

[14] = tested on: velvetleaf; format: in vivo, Abutilon theophrasti
Text: as §1, §2

[15] = tested on: waterhemp; format: in vivo, Amaranthus rudis
Text: as §1, §2

[16] = tested on: nutsedge, yellow; format: in vivo, Cyperus esculentus
Text: as §1, §2

[17] = tested on: foxtail, giant; format: in vivo, Setaria faberii
Text: as §1, §2

[18] = tested on: ryegrass, Italian; format: in vivo, Lolium multiflorum
Text: as §1, §2

[19] = Postemergence, 31 g ai/ha, visually evaluated after 13 to 15 days
[20] = postemergence, 62 g ai/ha, scale 0 to 100
[21] = postemergence, 250 g ai/ha, scale 0 to 100 (0 no effect, 100 complete control)
[22] = postemergence, 125 g ai/ha, scale 0 to 100, 0 no effect, 100 complete control

Q: `CCCc1cc(C(=O)NCC)nn1Cc1ccnc(C(F)(F)F)c1` [Compound 95] was tested. Which “Plant response rating (scale of 0 to 100 where 0 is no effect and 100 is complete control), Chickweed” value [1, 19] did it give?
A: 85

Q: What about the “Chickweed plant response rating” value [1, 20] of the same compound?
A: 100

Q: What about the “Plant response rating, Chickweed” value [1, 21] of the same compound?
A: 100

Q: What about the “Plant response rating, Chickweed” value [1, 22] of the same compound?
A: 100

Q: What about the “Plant response rating (scale of 0 to 100 where 0 is no effect and 100 is complete control), Corn” value [2, 19] of the same compound?
A: 5

Q: What about the “Corn plant response rating” value [2, 20] of the same compound?
A: 10

Q: And the “Plant response rating, Corn” value [2, 21]?
A: 10

Q: What about the “Plant response rating, Corn” value [2, 22] of the same compound?
A: 10

Q: And the “Plant response rating (scale of 0 to 100 where 0 is no effect and 100 is complete control), Soybean” value [3, 19]?
A: 45

Q: And the “Soybean plant response rating” value [3, 20]?
A: 50

Q: And the “Plant response rating, Soybean” value [3, 22]?
A: 80

Q: And the “Plant response rating (scale of 0 to 100 where 0 is no effect and 100 is complete control), Oilseed Rape” value [4, 19]?
A: 30

Q: And the “Oilseed Rape plant response rating” value [4, 20]?
A: 30

Q: What about the “Plant response rating, Oilseed Rape” value [4, 21] of the same compound?
A: 50

Q: And the “Plant response rating, Oilseed Rape” value [4, 22]?
A: 50

Q: And the “Plant response rating (scale of 0 to 100 where 0 is no effect and 100 is complete control), Morningglory” value [5, 19]?
A: 50

Q: And the “Morningglory plant response rating” value [5, 20]?
A: 50

Q: What about the “Plant response rating, Morningglory” value [5, 21] of the same compound?
A: 70

Q: What about the “Plant response rating, Morningglory” value [5, 22] of the same compound?
A: 50

Q: And the “Plant response rating (scale of 0 to 100 where 0 is no effect and 100 is complete control), Blackgrass” value [6, 19]?
A: 5

Q: And the “Blackgrass plant response rating” value [6, 20]?
A: 5

Q: And the “Plant response rating, Blackgrass” value [6, 21]?
A: 35

Q: And the “Plant response rating, Blackgrass” value [6, 22]?
A: 15

Q: What about the “Plant response rating (scale of 0 to 100 where 0 is no effect and 100 is complete control), Kochia” value [7, 19] of the same compound?
A: 50

Q: What about the “Kochia plant response rating” value [7, 20] of the same compound?
A: 70

Q: And the “Plant response rating, Kochia” value [7, 21]?
A: 85

Q: What about the “Plant response rating, Kochia” value [7, 22] of the same compound?
A: 85

Q: What about the “Plant response rating (scale of 0 to 100 where 0 is no effect and 100 is complete control), Ragweed” value [8, 19] of the same compound?
A: 45

Q: What about the “Ragweed plant response rating” value [8, 20] of the same compound?
A: 50

Q: What about the “Plant response rating, Ragweed” value [8, 21] of the same compound?
A: 85

Q: What about the “Plant response rating, Ragweed” value [8, 22] of the same compound?
A: 50

Q: And the “Plant response rating (scale of 0 to 100 where 0 is no effect and 100 is complete control), Crabgrass, Large” value [9, 19]?
A: 5

Q: And the “Crabgrass, Large plant response rating” value [9, 20]?
A: 10

Q: And the “Plant response rating, Crabgrass, Large” value [9, 21]?
A: 45

Q: And the “Plant response rating, Crabgrass, Large” value [9, 22]?
A: 40

Q: What about the “Plant response rating (scale of 0 to 100 where 0 is no effect and 100 is complete control), Galium” value [10, 19] of the same compound?
A: 60

Q: And the “Galium plant response rating” value [10, 20]?
A: 80

Q: What about the “Plant response rating, Galium” value [10, 21] of the same compound?
A: 90

Q: And the “Plant response rating, Galium” value [10, 22]?
A: 90

Q: What about the “Plant response rating (scale of 0 to 100 where 0 is no effect and 100 is complete control), Johnsongrass” value [11, 19] of the same compound?
A: 0

Q: And the “Johnsongrass plant response rating” value [11, 20]?
A: 0

Q: What about the “Plant response rating, Johnsongrass” value [11, 21] of the same compound?
A: 30

Q: What about the “Plant response rating, Johnsongrass” value [11, 22] of the same compound?
A: 5

Q: And the “Plant response rating (scale of 0 to 100 where 0 is no effect and 100 is complete control), Pigweed” value [12, 19]?
A: 10

Q: What about the “Pigweed plant response rating” value [12, 20] of the same compound?
A: 40

Q: What about the “Plant response rating, Pigweed” value [12, 21] of the same compound?
A: 70

Q: What about the “Plant response rating, Pigweed” value [12, 22] of the same compound?
A: 40

Q: And the “Plant response rating (scale of 0 to 100 where 0 is no effect and 100 is complete control), Oat, Wild” value [13, 19]?
A: 5

Q: And the “Oat, Wild plant response rating” value [13, 20]?
A: 5

Q: What about the “Plant response rating, Oat, Wild” value [13, 21] of the same compound?
A: 50

Q: What about the “Plant response rating, Oat, Wild” value [13, 22] of the same compound?
A: 15

Q: What about the “Plant response rating (scale of 0 to 100 where 0 is no effect and 100 is complete control), Velvetleaf” value [14, 19] of the same compound?
A: 10

Q: What about the “Velvetleaf plant response rating” value [14, 20] of the same compound?
A: 15

Q: What about the “Plant response rating, Velvetleaf” value [14, 21] of the same compound?
A: 40

Q: And the “Plant response rating, Velvetleaf” value [14, 22]?
A: 35

Q: And the “Plant response rating (scale of 0 to 100 where 0 is no effect and 100 is complete control), Waterhemp” value [15, 19]?
A: 30

Q: What about the “Waterhemp plant response rating” value [15, 20] of the same compound?
A: 30

Q: And the “Plant response rating, Waterhemp” value [15, 21]?
A: 30

Q: And the “Plant response rating, Waterhemp” value [15, 22]?
A: 30

Q: And the “Plant response rating (scale of 0 to 100 where 0 is no effect and 100 is complete control), Nutsedge, Yellow” value [16, 19]?
A: 0

Q: What about the “Nutsedge, Yellow plant response rating” value [16, 20] of the same compound?
A: 0

Q: What about the “Plant response rating, Nutsedge, Yellow” value [16, 21] of the same compound?
A: 10

Q: What about the “Plant response rating, Nutsedge, Yellow” value [16, 22] of the same compound?
A: 5

Q: And the “Plant response rating (scale of 0 to 100 where 0 is no effect and 100 is complete control), Foxtail, Giant” value [17, 19]?
A: 5

Q: What about the “Foxtail, Giant plant response rating” value [17, 20] of the same compound?
A: 40

Q: What about the “Plant response rating, Foxtail, Giant” value [17, 21] of the same compound?
A: 60

Q: What about the “Plant response rating, Foxtail, Giant” value [17, 22] of the same compound?
A: 45

Q: And the “Plant response rating (scale of 0 to 100 where 0 is no effect and 100 is complete control), Ryegrass, Italian” value [18, 19]?
A: 5

Q: What about the “Ryegrass, Italian plant response rating” value [18, 20] of the same compound?
A: 5

Q: What about the “Plant response rating, Ryegrass, Italian” value [18, 21] of the same compound?
A: 30

Q: And the “Plant response rating, Ryegrass, Italian” value [18, 22]?
A: 5

From US20150105252A1, “SUBSTITUTED PYRAZOLES AS HERBICIDES” (E I DU PONT DE NEMOURS AND COMPANY, priority 2013, published 2015)
